# US20190169134A1, “NOVEL CLASS OF QUINOLONE HETEROCYCLIC AROMATIC MOLECULES FOR CANCER TREATMENT” (RenoTarget Therapeutics, Inc., priority 2016, published 2019)
# Key:
# Assay in all cases: KinaseSeeker competition binding assay
# ABL1 = biological target: T1, ABL1 (Homo sapiens, UniProt P00519)
# T1 construct: made in house; host or cells: cell-free system (rabbit reticulocyte lysate)
# Protocol: (§1) Compound Reno647 was profiled against the following panel of kinases at 2 μM using the KinaseSeeker™ assay: ABL1, AKT1, AKT2, AKT3, ALK, AURKA, AXL, BRAF, BTK, CDK2, CDK5, CDK7, CDK8, CSF1R, DDR1, EGFR del L747-P753 InsS, EGFR (L861Q), EGFR (G719S), EGFR, EGFR (L858R), EPHA2, EPHB2, FGFR3, FLT1/VEGFR1, FLT2/FGFR1, FLT3, FLT4/VEGFR3, GSK-3a, HER2, IGF1R, INSR, KIT, LIMK1, MET, MLK2/MAP3K10, RPS6KA5/MSK1, MUSK, p38a/MAPK12, PDGFRA, PDGFRB, PDK1, RET, RIPK2, RPS6KA1/RSK1, SRC, TEC, TESK1, TRKB, VEGFR2, and YES 1.
# (§2) KinaseSeeker is a homogeneous competition binding assay where the displacement of an active site dependent probe by an inhibitor is measured by a change in luminescence signal (see FIG. 7). Luminescence readout translates into a highly sensitive and robust assay with low background and minimal interference from test compounds.
# (§3) (Jester, Cox et al. 2010; Jester, Gaj et al. 2012): 10 mM stock of compound Reno647 was diluted in DMSO to a concentration of 50 μM. Prior to initiating a profiling campaign, the compound was evaluated for false positive against split-luciferase. The compound was then screened in duplicate against each of the kinases. For kinase assays, each Cfluc-Kinase was translated along with Fos-Nfluc using a cell-free system (rabbit reticulocyte lysate) at 30° C. for 90 min. A 24 μL aliquot of this lysate containing either 1 μL of DMSO (for no-inhibitor control) or compound solution in DMSO (2 LM final concentration) was incubated for 30 minutes at room temperature followed by 1 hour in the presence of a kinase specific probe. A 80 μL of luciferin assay reagent was added to each solution and luminescence was immediately measured on a luminometer.
# (§4) The % Inhibition and % Activity Remaining were calculated using the following equations:
# (§5) % inhibition=(ALUcontrol−ALUsample)×100
# (§6) % activity=100−% inhibition.
# AKT1 = biological target: T2, AKT1 (Homo sapiens, UniProt P31749)
# T2 construct: made in house; host or cells: cell-free system (rabbit reticulocyte lysate)
# Protocol: as §1, §2, §3, §4, §5, §6
# AKT2 = biological target: T3, AKT2 (Homo sapiens, UniProt P31751)
# T3 construct: made in house; host or cells: cell-free system (rabbit reticulocyte lysate)
# T3 sequence (P31751 whole entry): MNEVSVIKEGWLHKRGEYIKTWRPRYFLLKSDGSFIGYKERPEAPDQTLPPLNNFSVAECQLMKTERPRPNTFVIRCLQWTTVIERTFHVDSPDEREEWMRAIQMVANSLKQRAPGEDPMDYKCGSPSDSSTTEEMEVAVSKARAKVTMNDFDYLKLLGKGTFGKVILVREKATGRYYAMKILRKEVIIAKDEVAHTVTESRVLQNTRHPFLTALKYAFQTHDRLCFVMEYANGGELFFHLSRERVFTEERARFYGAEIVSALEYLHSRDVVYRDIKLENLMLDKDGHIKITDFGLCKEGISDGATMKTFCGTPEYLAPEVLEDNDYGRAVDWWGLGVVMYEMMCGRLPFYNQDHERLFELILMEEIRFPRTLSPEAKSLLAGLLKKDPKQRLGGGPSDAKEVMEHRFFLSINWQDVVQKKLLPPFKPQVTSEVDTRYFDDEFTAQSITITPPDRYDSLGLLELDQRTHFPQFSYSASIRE
# Protocol: as §1, §2, §3, §4, §5, §6
# AKT3 = biological target: T4, AKT3 (Homo sapiens, UniProt Q9Y243)
# T4 construct: made in house; host or cells: cell-free system (rabbit reticulocyte lysate)
# Protocol: as §1, §2, §3, §4, §5, §6
# ALK = biological target: T5, ALK (Homo sapiens, UniProt Q9UM73)
# T5 construct: made in house; host or cells: cell-free system (rabbit reticulocyte lysate)
# T5 sequence (Q9UM73 19-1620): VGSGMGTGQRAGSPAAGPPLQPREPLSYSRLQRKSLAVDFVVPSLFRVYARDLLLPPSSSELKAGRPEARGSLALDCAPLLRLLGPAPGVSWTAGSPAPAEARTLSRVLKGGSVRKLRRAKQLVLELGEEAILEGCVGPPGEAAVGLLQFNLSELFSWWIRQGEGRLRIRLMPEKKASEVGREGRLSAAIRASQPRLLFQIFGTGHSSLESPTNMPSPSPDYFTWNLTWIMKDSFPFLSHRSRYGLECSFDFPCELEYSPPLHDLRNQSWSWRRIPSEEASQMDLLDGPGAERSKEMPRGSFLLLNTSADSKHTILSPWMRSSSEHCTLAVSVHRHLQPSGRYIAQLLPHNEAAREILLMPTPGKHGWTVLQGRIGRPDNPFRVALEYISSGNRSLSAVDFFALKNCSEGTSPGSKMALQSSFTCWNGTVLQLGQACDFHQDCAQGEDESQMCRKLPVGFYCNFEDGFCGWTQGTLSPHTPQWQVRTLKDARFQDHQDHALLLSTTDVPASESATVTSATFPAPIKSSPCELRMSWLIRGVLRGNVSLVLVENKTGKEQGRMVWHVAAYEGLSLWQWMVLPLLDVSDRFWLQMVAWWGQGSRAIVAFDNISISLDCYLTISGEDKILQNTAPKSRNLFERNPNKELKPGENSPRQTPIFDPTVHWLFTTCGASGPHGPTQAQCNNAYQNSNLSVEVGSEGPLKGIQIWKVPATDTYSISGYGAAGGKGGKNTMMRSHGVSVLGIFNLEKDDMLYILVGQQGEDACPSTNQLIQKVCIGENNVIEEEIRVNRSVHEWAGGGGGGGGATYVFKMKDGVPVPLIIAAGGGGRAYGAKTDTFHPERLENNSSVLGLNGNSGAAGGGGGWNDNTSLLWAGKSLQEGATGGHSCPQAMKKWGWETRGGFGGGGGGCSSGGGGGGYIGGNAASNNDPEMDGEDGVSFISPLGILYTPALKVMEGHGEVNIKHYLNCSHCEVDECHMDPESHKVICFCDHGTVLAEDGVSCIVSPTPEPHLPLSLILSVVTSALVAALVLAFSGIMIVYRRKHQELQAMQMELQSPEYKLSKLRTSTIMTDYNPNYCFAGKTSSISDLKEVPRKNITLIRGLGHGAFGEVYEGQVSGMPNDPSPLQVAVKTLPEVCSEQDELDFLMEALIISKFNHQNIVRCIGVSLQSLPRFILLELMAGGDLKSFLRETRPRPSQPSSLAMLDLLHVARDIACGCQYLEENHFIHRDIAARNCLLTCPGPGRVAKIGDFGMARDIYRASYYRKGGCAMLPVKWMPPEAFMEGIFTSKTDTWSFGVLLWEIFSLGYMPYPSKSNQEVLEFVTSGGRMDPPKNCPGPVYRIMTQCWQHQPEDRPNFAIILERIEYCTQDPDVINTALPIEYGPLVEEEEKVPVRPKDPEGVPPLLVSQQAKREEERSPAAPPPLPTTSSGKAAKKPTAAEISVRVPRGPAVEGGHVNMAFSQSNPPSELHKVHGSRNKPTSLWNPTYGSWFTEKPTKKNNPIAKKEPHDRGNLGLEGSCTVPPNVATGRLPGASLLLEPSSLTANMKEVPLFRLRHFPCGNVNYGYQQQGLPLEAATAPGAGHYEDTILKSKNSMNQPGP
# Protocol: as §1, §2, §3, §4, §5, §6
# BRAF = biological target: T6, BRAF (Homo sapiens, UniProt P15056)
# T6 construct: made in house; host or cells: cell-free system (rabbit reticulocyte lysate)
# Protocol: as §1, §2, §3, §4, §5, §6
# BTK = biological target: T7, BTK (Homo sapiens, UniProt Q06187)
# T7 construct: made in house; host or cells: cell-free system (rabbit reticulocyte lysate)
# Protocol: as §1, §2, §3, §4, §5, §6
# CDK2 - Cyclin E1 = biological target: T8, CDK2 - Cyclin E1 (Homo sapiens, UniProt P24941)
# T8 construct: made in house; host or cells: cell-free system (rabbit reticulocyte lysate)
# Protocol: as §1, §2, §3, §4, §5, §6
# CDK7 = biological target: T9, CDK7 (Homo sapiens, UniProt P50613)
# T9 construct: made in house; host or cells: cell-free system (rabbit reticulocyte lysate)
# T9 sequence (P50613 whole entry): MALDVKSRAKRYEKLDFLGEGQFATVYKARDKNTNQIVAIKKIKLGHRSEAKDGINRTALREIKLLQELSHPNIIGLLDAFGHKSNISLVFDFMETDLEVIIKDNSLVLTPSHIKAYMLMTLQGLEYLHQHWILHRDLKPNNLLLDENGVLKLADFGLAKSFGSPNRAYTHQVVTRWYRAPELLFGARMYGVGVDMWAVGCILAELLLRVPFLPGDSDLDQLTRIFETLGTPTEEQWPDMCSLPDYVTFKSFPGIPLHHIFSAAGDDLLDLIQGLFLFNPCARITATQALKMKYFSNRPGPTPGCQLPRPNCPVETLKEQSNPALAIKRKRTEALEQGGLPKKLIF
# Protocol: as §1, §2, §3, §4, §5, §6
# CDK8 = biological target: T10, CDK8 (Homo sapiens, UniProt P49336)
# T10 construct: made in house; host or cells: cell-free system (rabbit reticulocyte lysate)
# Protocol: as §1, §2, §3, §4, §5, §6
# DDR1 = biological target: T11, DDR1 (Homo sapiens, UniProt Q08345)
# T11 construct: made in house; host or cells: cell-free system (rabbit reticulocyte lysate)
# Protocol: as §1, §2, §3, §4, §5, §6
# EPHB2 = biological target: T12, EPHB2 (Homo sapiens, UniProt P29323)
# T12 construct: made in house; host or cells: cell-free system (rabbit reticulocyte lysate)
# Protocol: as §1, §2, §3, §4, §5, §6
# FGFR3 = biological target: T13, FGFR3 (Homo sapiens, UniProt P22607)
# T13 construct: made in house; host or cells: cell-free system (rabbit reticulocyte lysate)
# T13 sequence (P22607 23-806): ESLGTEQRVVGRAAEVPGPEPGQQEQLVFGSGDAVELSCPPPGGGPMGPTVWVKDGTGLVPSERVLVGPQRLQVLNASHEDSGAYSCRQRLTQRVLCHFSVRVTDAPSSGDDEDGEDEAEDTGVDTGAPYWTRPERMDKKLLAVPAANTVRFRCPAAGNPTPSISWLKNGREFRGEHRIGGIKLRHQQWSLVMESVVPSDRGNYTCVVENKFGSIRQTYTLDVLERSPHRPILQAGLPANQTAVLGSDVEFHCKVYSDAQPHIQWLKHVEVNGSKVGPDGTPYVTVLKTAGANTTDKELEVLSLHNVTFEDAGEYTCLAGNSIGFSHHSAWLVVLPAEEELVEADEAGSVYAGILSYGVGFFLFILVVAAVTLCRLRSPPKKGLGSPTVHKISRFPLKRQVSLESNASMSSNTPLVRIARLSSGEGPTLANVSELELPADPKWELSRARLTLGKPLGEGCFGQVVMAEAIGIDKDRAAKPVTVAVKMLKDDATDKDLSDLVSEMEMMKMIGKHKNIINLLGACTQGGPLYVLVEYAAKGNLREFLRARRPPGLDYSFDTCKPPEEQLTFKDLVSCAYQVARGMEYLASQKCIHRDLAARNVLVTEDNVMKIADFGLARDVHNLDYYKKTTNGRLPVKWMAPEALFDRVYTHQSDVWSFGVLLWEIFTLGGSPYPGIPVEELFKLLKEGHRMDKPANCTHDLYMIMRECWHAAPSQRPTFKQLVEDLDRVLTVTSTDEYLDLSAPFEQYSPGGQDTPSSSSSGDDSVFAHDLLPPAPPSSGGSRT
# Protocol: as §1, §2, §3, §4, §5, §6
# FLT3 = biological target: T14, FLT3 (Homo sapiens, UniProt P36888)
# T14 construct: made in house; host or cells: cell-free, rabbit reticulocyte lysate
# Protocol: as §1, §2, §3, §4, §5, §6
# FLT4 = biological target: T15, FLT4 (Homo sapiens, UniProt P35916)
# T15 construct: made in house; host or cells: cell-free, rabbit reticulocyte lysate
# Protocol: as §1, §2, §3, §4, §5, §6
# GSK3A = biological target: T16, GSK3A (Homo sapiens, UniProt P49840)
# T16 construct: made in house; host or cells: cell-free, rabbit reticulocyte lysate
# Protocol: as §1, §2, §3, §4, §5, §6
# HER2 = biological target: T17, HER2 (Homo sapiens, UniProt P04626)
# T17 construct: made in house; host or cells: cell-free, rabbit reticulocyte lysate
# T17 sequence (P04626 23-1255): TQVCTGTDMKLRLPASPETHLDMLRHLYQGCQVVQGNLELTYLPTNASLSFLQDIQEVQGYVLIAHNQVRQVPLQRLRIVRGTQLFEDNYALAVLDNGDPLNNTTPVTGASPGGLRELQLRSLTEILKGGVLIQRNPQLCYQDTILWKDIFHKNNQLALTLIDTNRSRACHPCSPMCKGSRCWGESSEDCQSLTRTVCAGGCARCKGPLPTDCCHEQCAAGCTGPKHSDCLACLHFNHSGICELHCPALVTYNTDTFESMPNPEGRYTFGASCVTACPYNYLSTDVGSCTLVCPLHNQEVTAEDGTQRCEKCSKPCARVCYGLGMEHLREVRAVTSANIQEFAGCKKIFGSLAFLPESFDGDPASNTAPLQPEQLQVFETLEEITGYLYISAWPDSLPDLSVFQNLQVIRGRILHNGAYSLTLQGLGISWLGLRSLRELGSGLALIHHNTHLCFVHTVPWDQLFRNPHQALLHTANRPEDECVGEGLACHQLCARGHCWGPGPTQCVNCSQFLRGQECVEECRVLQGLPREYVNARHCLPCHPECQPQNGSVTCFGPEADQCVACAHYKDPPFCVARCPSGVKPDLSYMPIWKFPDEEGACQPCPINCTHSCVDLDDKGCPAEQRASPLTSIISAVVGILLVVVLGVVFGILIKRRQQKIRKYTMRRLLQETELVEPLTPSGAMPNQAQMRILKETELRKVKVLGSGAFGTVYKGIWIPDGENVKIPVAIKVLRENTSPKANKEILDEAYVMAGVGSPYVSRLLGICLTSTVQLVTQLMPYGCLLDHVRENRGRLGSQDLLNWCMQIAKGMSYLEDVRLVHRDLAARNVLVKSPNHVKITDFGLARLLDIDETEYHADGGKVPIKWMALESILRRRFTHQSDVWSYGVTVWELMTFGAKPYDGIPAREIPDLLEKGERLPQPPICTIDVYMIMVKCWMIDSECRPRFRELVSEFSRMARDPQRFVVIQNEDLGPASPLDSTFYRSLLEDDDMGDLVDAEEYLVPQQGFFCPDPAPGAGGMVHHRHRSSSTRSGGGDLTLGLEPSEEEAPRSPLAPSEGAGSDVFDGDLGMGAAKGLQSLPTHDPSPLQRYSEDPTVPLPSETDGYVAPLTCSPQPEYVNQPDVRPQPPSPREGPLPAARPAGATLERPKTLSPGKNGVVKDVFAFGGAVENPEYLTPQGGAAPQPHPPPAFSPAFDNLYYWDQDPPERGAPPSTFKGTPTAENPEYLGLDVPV
# Protocol: as §1, §2, §3, §4, §5, §6
# KIT-KD = biological target: T18, KIT-KD (Homo sapiens, UniProt P10721)
# T18 construct: KIT-KD; made in house; host or cells: cell-free, rabbit reticulocyte lysate
# Protocol: as §1, §2, §3, §4, §5, §6
# LIMK1 = biological target: T19, LIMK1 (Homo sapiens, UniProt P53667)
# T19 construct: made in house; host or cells: cell-free, rabbit reticulocyte lysate
# T19 sequence (P53667 whole entry): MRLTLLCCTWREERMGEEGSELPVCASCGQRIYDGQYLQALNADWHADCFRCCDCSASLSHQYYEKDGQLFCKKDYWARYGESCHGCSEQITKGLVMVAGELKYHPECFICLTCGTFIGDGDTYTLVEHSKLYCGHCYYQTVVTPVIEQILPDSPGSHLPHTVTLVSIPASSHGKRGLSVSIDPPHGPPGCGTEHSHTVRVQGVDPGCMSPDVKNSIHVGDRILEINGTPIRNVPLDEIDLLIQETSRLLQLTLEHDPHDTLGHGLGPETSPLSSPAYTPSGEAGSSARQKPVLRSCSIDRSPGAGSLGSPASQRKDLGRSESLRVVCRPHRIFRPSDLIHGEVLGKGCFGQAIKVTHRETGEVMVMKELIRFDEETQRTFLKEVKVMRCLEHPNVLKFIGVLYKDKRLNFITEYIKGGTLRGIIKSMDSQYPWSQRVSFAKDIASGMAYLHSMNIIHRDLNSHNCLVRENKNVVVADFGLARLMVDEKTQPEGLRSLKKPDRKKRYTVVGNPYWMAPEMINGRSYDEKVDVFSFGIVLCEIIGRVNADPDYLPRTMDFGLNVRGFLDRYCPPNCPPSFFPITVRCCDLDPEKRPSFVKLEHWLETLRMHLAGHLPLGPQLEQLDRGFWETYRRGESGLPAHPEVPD
# Protocol: as §1, §2, §3, §4, §5, §6
# MSK1 = biological target: T20, MSK1 (Homo sapiens, UniProt O75582)
# T20 construct: made in house; host or cells: cell-free, rabbit reticulocyte lysate
# Protocol: as §1, §2, §3, §4, §5, §6
# PDGFRA = biological target: T21, PDGFRA (Homo sapiens, UniProt P16234)
# T21 construct: made in house; host or cells: cell-free, rabbit reticulocyte lysate
# Protocol: as §1, §2, §3, §4, §5, §6
# PDGFRB = biological target: T22, PDGFRB (Homo sapiens, UniProt P09619)
# T22 construct: made in house; host or cells: cell-free, rabbit reticulocyte lysate
# Protocol: as §1, §2, §3, §4, §5, §6
# PDPK1 = biological target: T23, PDPK1 (Homo sapiens, UniProt O15530)
# T23 construct: made in house; host or cells: cell-free, rabbit reticulocyte lysate
# Protocol: as §1, §2, §3, §4, §5, §6
# RET = biological target: T24, RET (Homo sapiens, UniProt P07949)
# T24 construct: made in house; host or cells: cell-free, rabbit reticulocyte lysate
# Protocol: as §1, §2, §3, §4, §5, §6
# RSK1 = biological target: T25, RSK1 (Homo sapiens, UniProt Q15418)
# T25 construct: made in house; host or cells: cell-free, rabbit reticulocyte lysate
# Protocol: as §1, §2, §3, §4, §5, §6
# TEC = biological target: T26, TEC (Homo sapiens, UniProt P42680)
# T26 construct: made in house; host or cells: cell-free, rabbit reticulocyte lysate
# Protocol: as §1, §2, §3, §4, §5, §6
# TESK1 = biological target: T27, TESK1 (Homo sapiens, UniProt Q15569)
# T27 construct: made in house; host or cells: cell-free, rabbit reticulocyte lysate
# Protocol: as §1, §2, §3, §4, §5, §6
# TRKB = biological target: T28, TRKB (Homo sapiens, UniProt Q16620)
# T28 construct: made in house; host or cells: cell-free, rabbit reticulocyte lysate
# Protocol: as §1, §2, §3, §4, §5, §6
# p38a = conditions: 2 μM
# Protocol: as §1, §2, §3, §4, §5, §6
compound,measurement,setting,value
"C#Cc1cccc(Nc2ncnc3cc(OCCOC)c(NC(=O)c4ccc(F)c([N+](=O)[O-])c4)cc23)c1 [Reno647, 4-Fluoro-N-[4-(3-ethynyl-phenylamino)-7-(2-methoxy-ethoxy)-quinazolin-6-yl]-3-nitro-benzamide]",remaining binding at 2 µM,ABL1,100%
same,remaining binding at 2 µM,AKT1,96.8%
same,remaining binding at 2 µM,AKT2,100%
same,remaining binding at 2 µM,AKT3,100%
same,remaining binding at 2 µM,ALK,92.1%
same,remaining binding at 2 µM,BRAF,100%
same,remaining binding at 2 µM,BTK,93.1%
same,remaining binding at 2 µM,CDK2 - Cyclin E1,100%
same,remaining binding at 2 µM,CDK7,95.5%
same,remaining binding at 2 µM,CDK8,92.3%
same,remaining binding at 2 µM,DDR1,~42%
same,remaining binding at 2 µM,EPHB2,100%
same,remaining binding at 2 µM,FGFR3,98.9%
same,remaining binding at 2 µM,FLT3,100%
same,remaining binding at 2 µM,FLT4,79.8%
same,remaining binding at 2 µM,GSK3A,100%
same,remaining binding at 2 µM,HER2,100%
same,remaining binding at 2 µM,KIT-KD,90%
same,remaining binding at 2 µM,LIMK1,100%
same,remaining binding at 2 µM,MSK1,100%
same,remaining binding at 2 µM,PDGFRA,96.4%
same,remaining binding at 2 µM,PDGFRB,76.6%
same,remaining binding at 2 µM,PDPK1,92.8%
same,remaining binding at 2 µM,RET,100%
same,remaining binding at 2 µM,RSK1,100%
same,remaining binding at 2 µM,TEC,97.4%
same,remaining binding at 2 µM,TESK1,100%
same,remaining binding at 2 µM,TRKB,88.4%
same,% Activity Remaining,p38a,100.0%
